What all share (type): in vivo
The test system of experiment [1] is Setaria faberi (SETFA). Nature of the experiment: Post-emergence herbicidal glasshouse test on Setaria faberi. The settings on record: post-emergence; 1000 g/h; evaluated after 13 days. Summed up: (§1)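 Pre-emergence treatment came one day after sowing, post-emergence treatment after eight days' growth; both used 1000 g/h in a 0.5% Tween 20 acetone/water vehicle. Percent damage, scored 1–5, was read 13 days later.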

Experiment [2] concerns Solanum nigrum (SOLNI). Nature of the experiment: Post-emergence herbicidal glasshouse test on Solanum nigrum. The following applies: post-emergence; 1000 g/h; evaluated after 13 days. The gist of the method: as §1
The subject of experiment [3] is Echinochloa crus-galli (ECHCG). Nature of the experiment: Post-emergence herbicidal glasshouse test on Echinochloa crus-galli. The following applies: post-emergence; 1000 g/h; evaluated after 13 days. Summed up: as §1
Experiment [4] relates to Setaria faberi (SETFA). Nature of the experiment: Pre-emergence herbicidal glasshouse test on Setaria faberi. The settings on record: pre-emergence; 1000 g/h; evaluated after 13 days. The gist of the method:
as §1

Experiment [5] relates to Solanum nigrum (SOLNI). Nature of the experiment: Pre-emergence herbicidal glasshouse test on Solanum nigrum. The following applies: pre-emergence; 1000 g/h; evaluated after 13 days. The gist of the method: as §1
The test system of experiment [6] is Alopecurus myosuroides (ALOMY). Nature of the experiment: Pre-emergence herbicidal glasshouse test on Alopecurus myosuroides. The following applies: pre-emergence; 1000 g/h; evaluated after 13 days. Summed up:
as §1

The test system of experiment [7] is Ipomoea hederacea (IPOHE). Nature of the experiment: Post-emergence herbicidal glasshouse test on Ipomoea hederacea. The settings on record: post-emergence; 1000 g/h; evaluated after 13 days. The gist of the method:
as §1

In experiment [8] the test system is Alopecurus myosuroides (ALOMY). The experiment can be described thus: Post-emergence herbicidal glasshouse test on Alopecurus myosuroides. The settings on record: post-emergence; 1000 g/h; evaluated after 13 days. Summed up: as §1
The subject of experiment [9] is Amaranthus retoflexus (AMARE). The experiment can be described thus: Pre-emergence herbicidal glasshouse test on Amaranthus retoflexus. The settings on record: pre-emergence; 1000 g/h; evaluated after 13 days. The gist of the method: as §1
Experiment [10] deals with Ipomoea hederacea (IPOHE). Nature of the experiment: Pre-emergence herbicidal glasshouse test on Ipomoea hederacea. The following applies: pre-emergence; 1000 g/h; evaluated after 13 days. The gist of the method:
as §1

The subject of experiment [11] is Amaranthus retoflexus (AMARE). Nature of the experiment: Post-emergence herbicidal glasshouse test on Amaranthus retoflexus. The settings on record: post-emergence; 1000 g/h; evaluated after 13 days. Summed up:
as §1

Experiment [12] deals with Echinochloa crus-galli (ECHCG). Nature of the experiment: Pre-emergence herbicidal glasshouse test on Echinochloa crus-galli. The settings on record: pre-emergence; 1000 g/h; evaluated after 13 days. Summed up: as §1

For the molecule `C=C(C)Cn1cccc(-c2cnn(C)c(=O)c2O)c1=O` [Compound 9.007], the “POST Application SETFA herbicidal damage (five point scale)” value (“POST Application SETFA herbicidal damage” below) with Setaria faberi (SETFA) [1] is 2 (2=20-39% damage). The “POST Application SOLNI herbicidal damage (five point scale)” value (from here on “POST Application SOLNI herbicidal damage”) in the experiment with Solanum nigrum (SOLNI) [2] is on record as 4 (4=60-79% damage). In addition, the “POST Application ECHCG herbicidal damage (five point scale)” value (shortened to “POST Application ECHCG herbicidal damage”) in experiment [3] is given as 1 (1=0-19% damage). Moreover, the “PRE Application SETFA herbicidal damage (five point scale)” value (“PRE Application SETFA herbicidal damage” below) in the experiment on Setaria faberi (SETFA) [4] was 1 (1=0-19% damage). Moreover, in the experiment with Solanum nigrum (SOLNI) [5], the “PRE Application SOLNI herbicidal damage (five point scale)” value (“PRE Application SOLNI herbicidal damage” for short) is recorded as 1 (1=0-19% damage). For the same molecule, the “PRE Application ALOMY herbicidal damage (five point scale)” value (from here on “PRE Application ALOMY herbicidal damage”) in experiment [6] is 1 (1=0-19% damage). Also, in experiment [7], the “POST Application IPOHE herbicidal damage (five point scale)” value (from here on “POST Application IPOHE herbicidal damage”) is recorded as 2 (2=20-39% damage). In addition, the “POST Application ALOMY herbicidal damage (five point scale)” value (shortened to “POST Application ALOMY herbicidal damage”) in experiment [8] is on record as 1 (1=0-19% damage). Further, the “PRE Application AMARE herbicidal damage (five point scale)” value (“PRE Application AMARE herbicidal damage” below) in [9] was 1 (1=0-19% damage). Also, in experiment [10], the “PRE Application IPOHE herbicidal damage (five point scale)” value (“PRE Application IPOHE herbicidal damage” for short) was 1 (1=0-19% damage). The “POST Application AMARE herbicidal damage (five point scale)” value (from here on “POST Application AMARE herbicidal damage”) in experiment [11] is given as 3 (3=40-59% damage). Further, the “PRE Application ECHCG herbicidal damage (five point scale)” value (shortened to “PRE Application ECHCG herbicidal damage”) in experiment [12] is 1 (1=0-19% damage).
On to `Cn1ncc(-c2cccn(Cc3ccccc3)c2=O)c(O)c1=O` [Compound 9.008], for which, in the experiment with Setaria faberi (SETFA) [1], the “POST Application SETFA herbicidal damage” value is listed as 1 (1=0-19% damage). In the experiment with Solanum nigrum (SOLNI) [2], the “POST Application SOLNI herbicidal damage” value is given as 3 (3=40-59% damage). Further, the “POST Application ECHCG herbicidal damage” value in [3] is 1 (1=0-19% damage). Also, the “PRE Application SETFA herbicidal damage” value in the experiment on Setaria faberi (SETFA) [4] is 1 (1=0-19% damage). In the experiment with Solanum nigrum (SOLNI) [5], the “PRE Application SOLNI herbicidal damage” value is given as 2 (2=20-39% damage). The “PRE Application ALOMY herbicidal damage” value in [6] is given as 1 (1=0-19% damage). The “POST Application IPOHE herbicidal damage” value in experiment [7] was 1 (1=0-19% damage). In experiment [8], the “POST Application ALOMY herbicidal damage” value is 1 (1=0-19% damage). Besides, the “PRE Application AMARE herbicidal damage” value in [9] is 2 (2=20-39% damage). In experiment [10], the “PRE Application IPOHE herbicidal damage” value is on record as 1 (1=0-19% damage). Further, the “POST Application AMARE herbicidal damage” value in [11] is 3 (3=40-59% damage). Besides, in experiment [12], the “PRE Application ECHCG herbicidal damage” value is 4 (4=60-79% damage).
As for `COCCn1cccc(-c2cnn(C)c(=O)c2O)c1=O` [Compound 9.009], in the experiment on Setaria faberi (SETFA) [1], the “POST Application SETFA herbicidal damage” value is reported as 3 (3=40-59% damage). The “POST Application SOLNI herbicidal damage” value in the experiment on Solanum nigrum (SOLNI) [2] is on record as 5 (5=80-100% damage). Also, in experiment [3], the “POST Application ECHCG herbicidal damage” value is on record as 3 (3=40-59% damage). The “PRE Application SETFA herbicidal damage” value in the experiment with Setaria faberi (SETFA) [4] was 1 (1=0-19% damage). For the same molecule, the “PRE Application SOLNI herbicidal damage” value in the experiment on Solanum nigrum (SOLNI) [5] is reported as 1 (1=0-19% damage). Also, in experiment [6], the “PRE Application ALOMY herbicidal damage” value was 1 (1=0-19% damage). Further, in experiment [7], the “POST Application IPOHE herbicidal damage” value is 3 (3=40-59% damage). In addition, the “POST Application ALOMY herbicidal damage” value in [8] was 2 (2=20-39% damage). For the same molecule, the “PRE Application AMARE herbicidal damage” value in [9] is given as 1 (1=0-19% damage). The “PRE Application IPOHE herbicidal damage” value in experiment [10] is 1 (1=0-19% damage). Further, the “POST Application AMARE herbicidal damage” value in [11] is listed as 4 (4=60-79% damage). The “PRE Application ECHCG herbicidal damage” value in experiment [12] is 1 (1=0-19% damage).
As for `Cn1ncc(-c2ccc(C(F)(F)F)n(C)c2=O)c(O)c1=O` [Compound 9.010], the “POST Application SETFA herbicidal damage” value in the experiment with Setaria faberi (SETFA) [1] was 2 (2=20-39% damage). Besides, in the experiment on Solanum nigrum (SOLNI) [2], the “POST Application SOLNI herbicidal damage” value is reported as 5 (5=80-100% damage). In addition, the “POST Application ECHCG herbicidal damage” value in experiment [3] is 4 (4=60-79% damage). Also, in the experiment with Setaria faberi (SETFA) [4], the “PRE Application SETFA herbicidal damage” value is 1 (1=0-19% damage). In the experiment with Solanum nigrum (SOLNI) [5], the “PRE Application SOLNI herbicidal damage” value is on record as 1 (1=0-19% damage). Also, in experiment [6], the “PRE Application ALOMY herbicidal damage” value is 1 (1=0-19% damage). The “POST Application IPOHE herbicidal damage” value in experiment [7] is given as 4 (4=60-79% damage). The “POST Application ALOMY herbicidal damage” value in experiment [8] is 2 (2=20-39% damage). For the same molecule, the “PRE Application AMARE herbicidal damage” value in [9] was 5 (5=80-100% damage). Also, the “PRE Application IPOHE herbicidal damage” value in experiment [10] is on record as 1 (1=0-19% damage). Further, in experiment [11], the “POST Application AMARE herbicidal damage” value is 5 (5=80-100% damage). Also, in experiment [12], the “PRE Application ECHCG herbicidal damage” value was 5 (5=80-100% damage).

For the origin of these results see US9693556B2, “Herbicidal pyridazinone derivatives” (SYNGENTA LIMITED, priority 2011, dated 2017).
